{
  "source": "patent US9888679B2",
  "about": "“Protection of progenitor cells and regulation of their differentiation” (Proteobioactives Pty Ltd, priority 2007, dated 2018)",
  "key": {"human progenitor cells": {"tested_on": "human progenitor cells", "experiment": "Proteoglycan synthesis in micromass cultures, 5 days", "type": "cell-based", "conditions": "FIG. 17", "excerpt": "FIG. 17. Bar graphs showing the concentration dependent effects of PPS on proteoglycan synthesis by human progenitor cells in micromass cultures for 5 days. Data is presented as 35S-GAG radioactivity and as a percentage of control taken as 100%. * P<0.05 relative to control.\nFIG. 19. Bar graphs showing the concentration dependent effects of (A) Hyaluronan (Supartz™) and (B) Dextran Polysulfate on proteoglycan synthesis by human progenitor cells in micromass cultures for 5 days. Data is presented as ^35S-GAG radioactivity and as a percentage of control, taken as 100% or as DPM/ug DNA. * P<0.05 relative to control.\nThe technique used was based on that described by (Denker A E, Haas A R, Nicoll S B and Tuan R S. Chondrogenic differentiation of murine C3H10T1/2 multipotential progenitor cells: I. Stimulation by bone morphogenetic protein-2 in high density micromass cultures. Differentiation (1999); 64: 67-76). Briefly murine Progenitor cells (cell lines C3H10T1/2 or ATDC5) purchased from RIKEN Cell Bank (Tsukuba, Japan) or human immunoselected Stro-1+ Progenitor cells (Mesoblast Ltd, Melbourne, Australia) Ten microlitres (10 μl) of a suspension of the progenitor cells (1×10^7 cells/ml in Ham's F12 medium+10% FBS) were applied to individual wells of a 24-well plates. After incubatation at 37° C. in a humidified atmosphere of 5% CO2/95% air for 2-3 hours, 900 μl of Ham's F12 medium (10% FBS) and 100 μl of PPS solution in the same medium were added slowly into the wells to afford final concentrations of PPS in each of 0, 0.1, 0.5, 1.0, 2.5, 5.0, 10.0, 20.0 μg/ml alone or in combination with rhNC4 (0, 0.1, 0.5, 1.0, 2.5, 5.0, 10.0, 25.0 μg/ml). Each drug concentration was repeated in triplicate. The cells were maintained in culture for up to 10 days. The medium with/without drugs was changed every 3 days but 24 hours before termination of the experiment 80 μl of 50 μCi/ml ^35S-H2SO4 was added to achieve a final ^35SO4 concentration of 5 μCi/ml. The following day, the cells in one of the plates were trypsinized with 150 μl/well of 2.5% trypsin and separated from the medium by centrifugation at 800 g for 10 minutes, washed with 500 μl of 1×PBS and stored in liquid nitrogen for RNA and/or DNA extraction and analysis. Media and supernatants were combined in one tube for each concentration of PPS used. To the tubes was added, 200 μl of 5× Papain solution [2.5 mg/ml Papain, 7.9 mg/ml L-Cysteine in Papain buffer (0.1 M NaAC, 5 mM EDTA, pH6.0)] and the solution incubated at 65° C. for 2 hours. After papain digestion, Four aliquots of 200 μl of digested solution were transferred to a 96-well plate (200 μl/well). The ^35S-GAG released by the digestion step were separated from the free ^35SO4 by adding 20 μl 5% CPC and 10 μl 1 mg/ml CSA with gentle shaking at 300 rpm RT for 20-30 min to precipitate the ^35S-GAG-CPC complexes. The precipitates were collected by filtered through glass fibre filters using a cell harvester. The filters were then air-dried and discs punched to scintillation vials. 3 ml/vial scintillation cocktail liquid was added and vortexed for 30-45 sec. The radioactivity of ^35S—SO4 incorporated the ^35S-GAG-CPC complexes was measured by scintillation counting.\nData is presented as 35S-GAG radioactivity and as a percentage of control taken as 100%. * P<0.05 relative to control.\nSimilar experiments were undertaken using Hyaluronic acid (SuperArtz (SKK, Tokyo, Japan)) and Dextran polysulfate (MW=5000) (Sigma, Sydney, Australia) in place of PPS. […] Data is presented as 35S-GAG radioactivity and as a percentage of control taken as 100% or as DPM/ug DNA. * P<0.05 relative to control."}, "[1]": {"tested_on": "murine Progenitor Cells (C3H10T1/2 cells)", "experiment": "DNA synthesis (3H-Thymidine) in 2 day monolayer cultures", "type": "cell-based", "conditions": "murine progenitor cell line, FIG. 10", "excerpt": "FIG. 10. A bar graph of the concentration dependent effects of Pentosan Polysulfate (PPS) on DNA synthesis by murine Progenitor Cells (C3H10T1/2 cells) grown in monolayer cultures for 2 days as determined by the incorporation of ^3H-Thymidine into macromolecular DNA."}},
  "data": [
    {"substance": "pentosan polysulfate [PPS]", "values": [
      {"measurement": "maximum stimulation of PG synthesis", "setting": "human progenitor cells; 2.5 micrograms/mL, 5 day micromass cultures", "value": 30, "unit": "%"},
      {"measurement": "proteoglycan synthesis", "setting": "human progenitor cells; PPS 0.5-10 μg/ml, 5 day micromass", "value": "Increased proteoglycan synthesis"},
      {"measurement": "cell division (3H-Thymidine incorporation into DNA)", "setting": "[1]", "value": "Marked stimulation of cell division"}
    ]}
  ]
}
